Read-outs that look alike come from different tables or passages of the source.

For the test, the target named is T1, human APJ receptor (Homo sapiens, UniProt P35414).
T1 construct: expressed in transfected cells
T1 sequence (P35414 1-380): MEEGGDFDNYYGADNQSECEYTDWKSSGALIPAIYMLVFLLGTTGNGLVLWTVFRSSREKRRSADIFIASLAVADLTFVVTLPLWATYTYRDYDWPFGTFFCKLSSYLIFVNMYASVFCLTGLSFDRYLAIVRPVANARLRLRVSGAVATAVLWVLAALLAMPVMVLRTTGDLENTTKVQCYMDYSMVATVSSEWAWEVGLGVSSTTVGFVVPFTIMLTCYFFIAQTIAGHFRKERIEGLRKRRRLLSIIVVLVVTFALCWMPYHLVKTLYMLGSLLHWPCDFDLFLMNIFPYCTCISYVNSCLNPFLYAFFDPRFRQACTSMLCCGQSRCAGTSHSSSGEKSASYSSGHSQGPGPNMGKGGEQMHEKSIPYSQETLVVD
Put plainly: Intracellular cAMP accumulation assay (APJ hcAMP, HTRF). Type of test: cell-based. The protocol: Intracellular cAMP Accumulation Assay
HEK293 cells stably expressing human APJ receptor were used to assess the activity of compounds. Cultured cells were detached and resuspended in the cAMP Homogeneous Time-Resolved Fluorescence (HTRF) assay buffer (Cisbio cat; #62AM4PEJ). The assay was performed in 384-well assay plates (Perkin-Elmer; cat #6008289) according to assay protocol provided by the manufacturer. Serial dilutions of a compound together with assay buffer containing […] IBMX and 2 μM forskolin were added to each well containing 5,000 cells and incubated for 30 minutes at room temperature. Subsequently, cAMP D2 reagent was added in the lysis buffer followed by the EuK antibody (Cisbio; cat #62AM4PEJ) and incubated for 60 min. The fluorescence emission ratio was measured using fluorometer. The intracellular cAMP concentrations (compound-stimulated inhibition of forskolin-mediated cAMP production) were calculated by extrapolation from a standard curve using known cAMP concentrations. The EC50 values were obtained by fitting the data to a sigmoidal concentration-response curve with variable slope. The maximal achievable inhibition of forskolin-induced cAMP levels (Ymax) for each compound was expressed as relative percentage of inhibition attained using pyroglutamated apelin-13 ((Pyrl)apelin-13) peptide, which was set to 100%.
The exemplified Examples disclosed below were tested in the APJ in vitro assays described above and were found having human APJ cyclic AMP (hcAMP) activity. Table 1 lists hcAMP EC50 values measured for the following examples. Ranges are as followε: A=0.0-10 nM; B=10.01-100 nM; C=101-500 nM.

The mark [1] stands for this setting: Table 1, HEK293 cells stably expressing human APJ receptor, inhibition of forskolin-mediated cAMP production, read-out: APJ hcAMP EC50.
The mark [2] stands for this setting: Table 3, HEK293 cells stably expressing human APJ receptor, read-out: APJ cAMP Human EC50.
The mark [3] stands for this setting: human APJ, cAMP, potency range class, read-out: APJ cAMP Human EC50.

For the compound `CCC[C@@H](NC(=O)c1ccc(-c2c(Cl)cccc2-c2ncc(-c3ccc(OC)cc3)[nH]2)c(C(=O)O)c1)c1ccccc1` (atropisomer, axis not shown) [Example 105, (S)-2′-chloro-6′-[5-(4-methoxyphenyl)-1H-imidazol-2-yl]-4-{[(1R)-1-phenylbutyl]carbamoyl}-[1,1′-biphenyl]-2-carboxylic acid], the EC50 reads like this: under setting [1], less than 10 nM; under setting [2], less than 10 nM.

For `CCC[C@@H](NC(=O)c1ccc(-c2c(Cl)cccc2-c2nc(C)c(-c3ccccc3)[nH]2)c(C(=O)O)c1)c1ccccc1` (atropisomer, axis not shown) [Example 106, (S)-2′-chloro-6′-(4-methyl-5-phenyl-1H-imidazol-2-yl)-4-{[(1R)-1-phenylbutyl]carbamoyl}-[1,1′-biphenyl]-2-carboxylic acid], under setting [2], the EC50 lay within 10 to 100 nM.

As to `CCC[C@@H](NC(=O)c1ccc(-c2c(Cl)cccc2-c2ncc(-c3ccncc3)[nH]2)c(C(=O)O)c1)c1ccccc1` (atropisomer, axis not shown) [Example 107, (S)-2′-chloro-4-{[(1R)-1-phenylbutyl]carbamoyl}-6′-[5-(pyridin-4-yl)-1H-imidazol-2-yl]-[1,1′-biphenyl]-2-carboxylic acid], the EC50 under setting [2] fell in the range of 10 to 100 nM.

For `CCC[C@@H](NC(=O)c1ccc(-c2c(Cl)cccc2-c2nc3cc(Cl)c(F)cc3[nH]2)c(C(=O)O)c1)c1ccccc1` (atropisomer, axis not shown) [Example 108, (S)-2′-chloro-6′-(5-chloro-6-fluoro-1H-1,3-benzodiazol-2-yl)-4-{[(1R)-1-phenylbutyl]carbamoyl}-[1,1′-biphenyl]-2-carboxylic acid], the EC50 under setting [2] was less than 10 nM.

For the compound `CCC[C@@H](NC(=O)c1ccc(-c2c(Cl)cccc2-c2nc3cc(O)ccc3[nH]2)c(C(=O)OC)c1)c1ccccc1` (atropisomer, axis not shown) [Example 128, (S)-methyl 2′-chloro-6′-(5-hydroxy-1H-1,3-benzodiazol-2-yl)-4-{[(1R)-1-phenylbutyl]carbamoyl}-[1,1′-biphenyl]-2-carboxylate], under setting [2], the EC50 was 10 to 100 nM.

For `CCC[C@@H](NC(=O)c1ccc(-c2c(Cl)cccc2-c2nc3cc(OC)ccc3[nH]2)c(C(=O)O)c1)c1ccccc1` (atropisomer, axis not shown) [Example 132, (S)-2′-chloro-6′-(5-methoxy-1H-1,3-benzodiazol-2-yl)-4-{[(1R)-1-phenylbutyl]carbamoyl}-[1,1′-biphenyl]-2-carboxylic acid], the EC50 reads like this: under setting [1], less than 10 nM; under setting [2], less than 10 nM.

Turning to `CCC[C@@H](NC(=O)c1ccc(-c2c(Cl)cccc2-c2nc3cnccc3[nH]2)c(C(=O)O)c1)c1ccccc1` (atropisomer, axis not shown) [Example 133, (S)-2′-chloro-6′-{1H-imidazo[4,5-c]pyridin-2-yl}-4-{[(1R)-1-phenylbutyl]carbamoyl}-[1,1′-biphenyl]-2-carboxylic acid], the EC50 under setting [2] was less than 10 nM.

For the compound `CCC[C@@H](NC(=O)c1ccc(-c2c(Cl)cccc2-c2nc3cc(OC(C)=O)ccc3[nH]2)c(C(=O)O)c1)c1ccccc1` (atropisomer, axis not shown) [Example 134, (S)-2′-[5-(acetyloxy)-1H-1,3-benzodiazol-2-yl]-6′-chloro-4-{[(1R)-1-phenylbutyl]carbamoyl}-[1,1′-biphenyl]-2-carboxylic acid], the EC50 was less than 10 nM under setting [1] and less than 10 nM under setting [2].

On to `CCC[C@@H](NC(=O)c1ccc(-c2c(Cl)cccc2-c2nc3cc(O)ccc3[nH]2)c(C(=O)O)c1)c1ccccc1` (atropisomer, axis not shown) [Example 135, (S)-2′-chloro-6′-(5-hydroxy-1H-1,3-benzodiazol-2-yl)-4-{[(1R)-1-phenylbutyl]carbamoyl}-[1,1′-biphenyl]-2-carboxylic acid], for which the EC50 under setting [2] is 10 to 100 nM.

For the compound `CCC[C@@H](NC(=O)c1ccc(-c2c(Cl)cccc2-c2nc3cc(OC(C)=O)ccc3[nH]2)c(C(=O)O)c1)c1ccccc1` (atropisomer, axis not shown) [Example 136, (S)-2′-[5-(acetyloxy)-1H-1,3-benzodiazol-2-yl]-6′-chloro-4-{[(1R)-1-phenylbutyl]carbamoyl}-[1,1′-biphenyl]-2-carboxylic acid], under setting [2], the EC50 was in the range of 101 to 500 nM.

Consider `CCC[C@@H](NC(=O)c1ccc(-c2c(Cl)cccc2-c2nc3ccccc3[nH]2)c(C(=O)O)c1)c1ccccc1` (atropisomer, axis not shown) [Example 141, (R)-2′-(1H-1,3-benzodiazol-2-yl)-6′-chloro-4-{[(1R)-1-phenylbutyl]carbamoyl}-[1,1′-biphenyl]-2-carboxylic acid], for which, under setting [2], the EC50 is 10 to 100 nM.

`COC[C@@H](NC(=O)c1ccc(-c2c(Cl)cccc2-c2nc3ccccc3[nH]2)c(C(=O)O)c1)c1ccccc1` (atropisomer, axis not shown) [Example 150, (S)-2′-(1H-1,3-benzodiazol-2-yl)-6′-chloro-4-{[(1S)-2-methoxy-1-phenylethyl]carbamoyl}-[1,1′-biphenyl]-2-carboxylic acid]: the EC50 by setting is: under setting [1], less than 10 nM; under setting [2], less than 10 nM.

In the case of `CC(C)(O)C[C@@H](NC(=O)c1ccc(-c2c(Cl)cccc2-c2nc3ccccc3[nH]2)c(C(=O)O)c1)c1ccccc1` (atropisomer, axis not shown) [Example 151, (S)-2′-(1H-1,3-benzodiazol-2-yl)-6′-chloro-4-{[(1R)-3-hydroxy-3-methyl-1-phenylbutyl]carbamoyl}-[1,1′-biphenyl]-2-carboxylic acid], the EC50 is less than 10 nM under setting [1] and less than 10 nM under setting [2].

As for `CCC[C@H](NC(=O)c1ccc(-c2c(Cl)cccc2-c2nc3ccccc3[nH]2)c(C(=O)O)c1)c1ccccc1` (atropisomer, axis not shown) [Example 152, (S)-2′-(1H-1,3-benzodiazol-2-yl)-6′-chloro-4-{[(1S)-1-phenylbutyl]carbamoyl}-[1,1′-biphenyl]-2-carboxylic acid], the EC50 under setting [2] was in the range of 10 to 100 nM.

`COC[C@@H](NC(=O)c1ccc(-c2c(Cl)cccc2-c2nc3cc(OC)c(F)cc3[nH]2)c(C(=O)O)c1)c1ccccc1` (atropisomer, axis not shown) [Example 154, (S)-2′-chloro-6′-(6-fluoro-5-methoxy-1H-1,3-benzodiazol-2-yl)-4-{[(1S)-2-methoxy-1-phenylethyl]carbamoyl}-[1,1′-biphenyl]-2-carboxylic acid]: the EC50 under setting [2] was less than 10 nM.

In the case of `CCC[C@@H](NC(=O)c1ccc(-c2c(Cl)cccc2-c2nc3cc(O)ccc3[nH]2)c(C(=O)O)c1)c1ccccc1` (atropisomer, axis not shown) [Example 155, (S)-2′-chloro-6′-(5-hydroxy-1H-1,3-benzodiazol-2-yl)-4-{[(1R)-1-phenylbutyl]carbamoyl}-[1,1′-biphenyl]-2-carboxylic acid], under setting [2], the EC50 is less than 10 nM.

As to `O=C(N[C@H](CN1CCOCC1)c1ccccc1)c1ccc(-c2c(Cl)cccc2-c2nc3ccccc3[nH]2)c(C(=O)O)c1` (atropisomer, axis not shown) [Example 156, (S)-2′-(1H-1,3-benzodiazol-2-yl)-6′-chloro-4-{[(1S)-2-(morpholin-4-yl)-1-phenylethyl]carbamoyl}-[1,1′-biphenyl]-2-carboxylic acid], the EC50 runs as follows: under setting [1], less than 10 nM; under setting [2], less than 10 nM.

For `CCC[C@@H](NC(=O)c1ccc(-c2c(Cl)cccc2-c2nc3ccc(F)c(F)c3[nH]2)c(C(=O)O)c1)C1CCCCC1` (atropisomer, axis not shown) [Example 159, (S)-2′-chloro-4-{[(1R)-1-cyclohexylbutyl]carbamoyl}-6′-(6,7-difluoro-1H-1,3-benzodiazol-2-yl)-[1,1′-biphenyl]-2-carboxylic acid], the EC50 reads like this: under setting [1], less than 10 nM; under setting [3], less than 10 nM.

As to `CCC[C@@H](NC(=O)c1ccc(-c2c(Cl)cccc2-c2nc3cc(F)c(F)cc3[nH]2)c(C(=O)O)c1)C1CCCCC1` (atropisomer, axis not shown) [Example 162, (S)-2′-chloro-4-{[(1R)-1-cyclohexylbutyl]carbamoyl}-6′-(5,6-difluoro-1H-1,3-benzodiazol-2-yl)-[1,1′-biphenyl]-2-carboxylic acid], the EC50 under setting [1] is less than 10 nM and the EC50 under setting [3] was less than 10 nM.

With `O=C(NC(CCC(F)(F)F)c1ccccc1)c1ccc(-c2cc(Cl)ccc2-c2nc3ccccc3[nH]2)c(C(=O)O)c1` (racemic) [Example 158, 2′-(1H-Benzo[d]imidazol-2-yl)-5′-chloro-4-((4,4,4-trifluoro-1-phenylbutyl)carbamoyl)-[1,1′-biphenyl]-2-carboxylic acid], the EC50 is, setting by setting: under setting [1], 10 to 100 nM; under setting [3], 10 to 100 nM.

(Values after patent US11498903B2 (BRISTOL-MYERS SQUIBB COMPANY, priority 2017, dated 2022).)
